# According to paper PMC5078989, “Targeted inhibition of the COP9 signalosome for treatment of cancer” (Nature Communications, 2016):
# Test system: panel of cancer cell lines
# Assay: Cell viability (CellTiter-Glo) dose-response across cancer cell line panel;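 also: after 72 h compound incubation with CellTiter-Glo ATP readout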
# Format: cell-based, human
# Conditions: Homo sapiens
# Source text: Next, we explored the effect of CSN5 inhibition on the viability of cancer cells. To obtain a comprehensive picture, we generated dose–response curves with a CSN5 inhibitor across more than 500 cancer cell lines in a previously described standardized setting[47] (Supplementary Data 1).
# A standardized CellTiter-Glo Assay (Promega #G7570) based on the quantification of ATP was applied according to the manufacturer's protocol to measure the amount of viable cells in culture. In brief, cells were seeded into 384-well plates at optimal density for each cell line. After 4 h, compounds were added at different concentrations in growth medium and incubated for another 72 h in a humidifying chamber at 37 °C and 5% CO2. […] EC50 values were calculated from the plot of percentage of inhibition versus inhibitor concentration using the nonlinear regression analysis software Origin 7.5SR6 (OriginLab Corp.).
compound,measurement,setting,value
CC(C)C[C@H](NC(=O)[C@H](Cc1ccccc1)NC(=O)c1cnccn1)B(O)O [Bortezomib],EC50,"HCC1500, HCC1500",5.16 nM
same,EC50,"HCC1569, HCC1569",6.77 nM
same,EC50,"HCC1806, HCC1806",24.8 nM
same,EC50,"HCC1937, HCC1937",7.46 nM
same,EC50,"HCC1954, HCC1954",3.14 nM
same,EC50,"HCC2218, HCC2218",9.79 nM
same,EC50,"HCT-15, HCT-15",26.6 nM
same,EC50,"HCT-116, HCT 116",6.91 nM
same,EC50,"HEC-1-A, cell line HEC-1-A",15.5 nM
same,EC50,"HEC-6, HEC-6",21.4 nM
same,EC50,HEC-50B,25.2 nM
same,EC50,HEC-59,7.32 nM
same,EC50,HEC-151,21.6 nM
same,EC50,"HEC-251, HEC-251",9.46 nM
same,EC50,HEC-265,17 nM
same,EC50,"HEL 92.1.7, HEL 92.1.7",5.21 nM
same,EC50,"HEY A8, Hey-A8",56.7 nM
same,EC50,"HGC-27, HGC-27",16.2 nM
same,EC50,HLC-1,11.1 nM
same,EC50,HLF,13.8 nM
same,EC50,HMC-1-8,7.01 nM
same,EC50,HMCB,9.61 nM
same,EC50,"HPBALL, HPB-ALL",3.18 nM
same,EC50,"HRT-18, HRT-18",53.1 nM
same,EC50,HT,1.72 nM
same,EC50,"HT55, HT55",31 nM
same,EC50,"HT115, HT115",8.52 nM
same,EC50,"HT-29, HT-29",18.4 nM
same,EC50,"HT-144, HT-144",8.93 nM
same,EC50,"HT-1080, HT-1080",20.1 nM
same,EC50,"HT-1376, HT-1376",18.1 nM
same,EC50,HTK-,17.1 nM
same,EC50,Hs 294T,11.4 nM
same,EC50,Hs 571.T,10.2 nM
same,EC50,Hs 611.T,6.13 nM
same,EC50,Hs 695T,3.73 nM
same,EC50,Hs 729,7.87 nM
same,EC50,"Hs766T, Hs 766T",19.8 nM
same,EC50,Hs 936.T,8.25 nM
same,EC50,Hs 939.T,4.42 nM
same,EC50,Hs 940.T,3.97 nM
same,EC50,Hs 944.T,12.7 nM
same,EC50,"Hs-578T, Hs 578T",10.3 nM
same,EC50,"HuH-1, cell line huH-1",44.7 nM
same,EC50,"HuP-T3, HUP-T3",7.39 nM
same,EC50,"IGR-1, IGR-1",8.66 nM
same,EC50,"IGR-37, IGR-37",8.3 nM
same,EC50,"IGR-39, IGR-39",7.6 nM
same,EC50,"IGROV-1, IGROV1",26.8 nM
same,EC50,"IMR-32, IMR-32",5.94 nM
same,EC50,"IPC-298, cell line IPC-298",9.44 nM
same,EC50,"Ishikawa, Ishikawa (Heraklio) 02 ER-",16.1 nM
same,EC50,"J82, J82",11.9 nM
same,EC50,"JHH7, cell line JHH-7",10.2 nM
same,EC50,"JHH-2, cell line JHH-2",18.3 nM
same,EC50,JHOM-1,4.86 nM
same,EC50,JHUEM-2,5.6 nM
same,EC50,"JIMT-1, JIMT-1",13.9 nM
same,EC50,"JJN-3, JJN-3",2.61 nM
same,EC50,"JVM-2, JVM-2",4.69 nM
same,EC50,"JVM-3, JVM-3",8.69 nM
same,EC50,"JeKo-1, JeKo-1",7.3 nM
same,EC50,Jurkat,9.14 nM
same,EC50,K029AX,4.76 nM
same,EC50,"K562, K-562",16.3 nM
same,EC50,"KARPAS-299, KARPAS-299",5.88 nM
same,EC50,"KARPAS-422, KARPAS-422",6.19 nM
same,EC50,KASUMI-2,3.8 nM
same,EC50,"KATO III, cell line KATO III",7.88 nM
same,EC50,"KCL-22, KCL-22",4.19 nM
same,EC50,KHM-1B,4.04 nM
same,EC50,KLE,12.8 nM
same,EC50,"KM12, KM12",23.9 nM
same,EC50,"KMM-1, KMM-1",4.45 nM
same,EC50,"KMRC-1, KMRC-1",6.75 nM
same,EC50,KMRC-20,10.1 nM
same,EC50,"KMS-11, KMS-11",3.19 nM
same,EC50,KMS-12-BM,5.34 nM
same,EC50,"KMS-26, KMS-26",11.5 nM
same,EC50,KMS-28BM,3.85 nM
same,EC50,"KMS-34, KMS-34",12.2 nM
same,EC50,"KNS-62, KNS-62",19.3 nM
same,EC50,KO52,2.37 nM
same,EC50,KP-1N,7.49 nM
same,EC50,KP-1NL,9.41 nM
same,EC50,KP-N-SI9s,8.48 nM
same,EC50,KP-N-YN,20.2 nM
same,EC50,"KPL-1, KPL-1",20.5 nM
same,EC50,"KU812, KU812",4 nM
same,EC50,KYM-1,4.88 nM
same,EC50,"KYO1, KYO-1",6.59 nM
same,EC50,"KYSE-30, KYSE-30",7.82 nM
same,EC50,"KYSE-70, cell line KYSE-70",18 nM
same,EC50,"KYSE-150, cell line KYSE-150",6.63 nM
same,EC50,"KYSE-270, cell line KYSE-270",10.3 nM
same,EC50,"KYSE-410, cell line KYSE-410",21.2 nM
same,EC50,"KYSE-450, KYSE-450",16 nM
same,EC50,"KYSE-510, cell line KYSE-510",11.9 nM
same,EC50,"KYSE-520, cell line KYSE-520",13.4 nM
same,EC50,"Karpas-620, KARPAS-620",6.17 nM
same,EC50,Kelly,3.53 nM
same,EC50,Ki-JK,4.34 nM
same,EC50,L3.3,29.6 nM
same,EC50,"L-363, L-363",5.51 nM
same,EC50,"LAMA-84, LAMA-84",5.36 nM
same,EC50,"LCLC-97TM1, LCLC-97TM1",8.39 nM
same,EC50,LCLC-103H,10.1 nM
same,EC50,"LK-2, LK-2",11.7 nM
same,EC50,LMSU,10.3 nM
same,EC50,"LN-18, LN-18",15.3 nM
same,EC50,"LN-229, LN-229",8.7 nM
same,EC50,LOX IMVI,26.4 nM
same,EC50,"LP-1, LP-1",5.99 nM
same,EC50,"LS180, LS 180",16.4 nM
same,EC50,"LS-411N, LS411N",17.3 nM
same,EC50,"LXF-289, LXF-289",14.3 nM
same,EC50,"Li-7, Li-7",15.6 nM
same,EC50,LoVo,13.4 nM
same,EC50,Loucy,2.54 nM
same,EC50,"Lu-65, LU65",7.61 nM
same,EC50,"Lu-99, LU99",15.4 nM
same,EC50,MB 157,6.39 nM
same,EC50,"MC116, cell line MC116",9.81 nM
same,EC50,MCAS,8.1 nM
same,EC50,"MCF7, MCF7",38 nM
same,EC50,MDA-MB-175-VII,10.3 nM
same,EC50,"MDA-MB-231, MDA-MB-231",10.9 nM
same,EC50,"MDA-MB-415, MDA-MB-415",16.1 nM
same,EC50,"MDA-MB-436, MDA-MB-436",12.6 nM
same,EC50,"MDA-MB-453, MDA-MB-453",6.73 nM
same,EC50,"MDA-MB-468, MDA-MB-468",5.97 nM
same,EC50,"MDST8, MDST8",8.17 nM
same,EC50,"MEC1, MEC-1",4.98 nM
same,EC50,"MEG-01, MEG-01",8.7 nM
same,EC50,MEL-JUSO,10.6 nM
same,EC50,"MFE-296, cell line MFE-296",19.8 nM
same,EC50,"MG-63, MG-63",5.92 nM
same,EC50,MHH-NB-11,10.4 nM
same,EC50,"MIA PaCa-2, cell line MIA PaCa-2",15.1 nM
same,EC50,MINO,6.8 nM
same,EC50,"MKN-1, cell line MKN1",6.81 nM
same,EC50,"MKN-7, cell line MKN7",7.08 nM
same,EC50,"MKN-45, cell line MKN-45",8.03 nM
same,EC50,"MKN-74, cell line MKN74",8.77 nM
same,EC50,"MM1.S, cell line MM1-S",2 nM
same,EC50,"MOLM16, MOLM-16",1.95 nM
same,EC50,"MOLM-13, MOLM-13",5.21 nM
same,EC50,"MOLP-8, MOLP-8",7.29 nM
same,EC50,"MOLT-16, MOLT-16",1.73 nM
same,EC50,"MONO-MAC-6, MONO-MAC-6",10.9 nM
same,EC50,MOR/CPR,39.6 nM
same,EC50,"MSTO-211H, cell line MSTO-211H",22 nM
same,EC50,"MV4-11, cell line MV-4-11",5.18 nM
same,EC50,Malme-3M,3.27 nM
same,EC50,"Maver1, cell line MAVER-1",6.73 nM
same,EC50,"MeWo, cell line MeWo",8.08 nM
same,EC50,"Mel202, cell line Mel202",10.1 nM
same,EC50,"Mono-Mac-1, MONO-MAC-1",7.98 nM
